# Residues, ends and D or L forms follow the SMILES beside them. *: point of attachment. Cbz = O=C(OCc1ccccc1)*; CH2Cl = ClC*
# Key:
# T^frat cells [1] = assay: Degranulation (CD107a) in T^frat cells cultured with rCD31 with or without PI3K or ERK1/2 inhibitors; type: cell-based, mouse; details: rCD31 with inhibitor (100 nM), 24 h
# T^frat cells [2] = assay: Gzm B levels in T^frat cells after NAD repletion or SIRT1 activator; type: cell-based, mouse; details: NAD (1 mM) or SIRT1 activator (1 or 2 μM), 24 h
# Protocol: (§1) PD1^+CD38^hi and Teff CD8 T cells were generated by our previously reported method^2. In brief, MACS purified (>90%) OT1-CD8 (CD45.1) T cells from mouse spleen were activated either with low-affinity OVA-V peptide or with high-affinity OVA peptide ([…]) in T cell medium supplemented with 30 international units (IU) of IL-2 for 48 hours followed by FACS purification of PD1^+CD38^hi and PD1^+CD38^lo T cells respectively. Various cell surface and intracellular markers as well as level of pro- and anti-inflammatory cytokines, and cytolytic molecules were analyzed by flow cytometry as explained in the next section. In some experiments, CD38 was KD using siRNA for 24 h prior to various marker analysis. Furthermore, in a few experiments, either NAD (1 mM) or SIRT1 activator (1 or 2 μM) were added to the Tfrat cells for 24 h and levels of Gzm B were measured in these cells and in Teff cells by flow cytometry. To determine the role of CD38:CD31 interaction and signaling in Gzm B degranulation, Tfrat cells were cultured with rCD31 (1 or 5 μg) with or without PI3K or ERK1/2 inhibitors (100 nM). After 24 h, degranulation of Gzm B in T^frat cells was measured by CD1071 staining and levels of various signaling molecules by flow cytometry.
# [3] = test system: target pMel-1 CD8 T cells; assay: Co-culture (in vitro cell killing) of PD1+CD38hi or Teff CD8 T cells with target pMel-1 CD8 T cells; annexin V, caspase3/7, live/dead staining; type: cell-based; details: co-incubation of T^frat and target cells with blocking antibody or inhibitor
# Excerpt: For the flow cytometry analysis of lymphocytes of mouse and human origin, 1-2×10^6 cells per sample were stained with the LIVE/DEAD fixable near-IR dead cell stain kit (Invitrogen; catalog no. L10119) followed by fixation and permeabilization. All surface and intracellular markers were stained at the same time in fix and per buffer as per manufacturer's recommendations. For IFN-7 and Gzm B staining, the BD Biosciences Cytofix/Cytoperm (catalog no. 51-2090KZ) and BD Biosciences Perm/Wash (catalog no. 51-2091KZ) buffer sets were used according to the manufacturer's instructions. In a few experiments, variously treated cells were processed for annexin V staining to check the extent of apoptosis. For this, collected cells were stained for annexin V in annexin binding buffer (ABB) (BD Biosciences) for 30 minutes at 4° C. […]
# PD1^+CD38^hi and Teff CD8 T cells were co-cultured overnight with FACS-sorted Thy1.1 target pMel-1 CD8^+ T cells (killer to target cell ratio 1:1) that were activated with gp100 peptide (1 μM per 10^6 cells per mL). […] In addition to the annexin V staining, Gzm B levels in the pMel-1 target CD8 or CD4 T cells and […] levels in the Tfrat cells after their co-culture in the presence or absence of anti-CD38/CD31 were measured by flow cytometry. […] Viability of target cells was assessed by FACS analysis using fixable Live/Dead stain.
# [4] = test system: Zap70, PI3K, RAC, and ERK in T^frat cells; assay: Signaling molecules in T^frat cells incubated with rCD31 (Western blotting); type: cell-based, mouse; details: incubation with rCD31 (1 or 5 μg)
# Protocol: as §1, with “After 24 h, degranulation of Gzm B in T^frat cells was measured by CD1071 staining and levels of various signaling molecules by flow cytometry.” left out
molecule,measurement,setting,value
"O=C(Nc1ccc2[nH]nc(-c3ccncc3)c2c1)[C@@H]1CCN(CC(=O)N2CCN(c3ccc(-c4ncccn4)cc3)CC2)C1 [ERK inhibitor, SCH772984]","degranulation of Gzm B resulting from CD38:CD31 engagement, measured by CD107a level",T^frat cells [1],inhibited
Cl.O=C(Nc1ccccc1-c1cn2c(CN3CCNCC3)csc2n1)c1cnc2ccccc2n1 [SRT1720 HCl],expression of Gzm B in T^frat,T^frat cells [2],decrease in the expression of Gzm B
C[C@H](NC(=O)OCc1ccccc1)C(=O)N[C@@H](C)C(=O)N[C@@H](CC(=O)O)C(=O)CCl [Z-AAD-CMK] (Cbz-Ala-Ala-Asp-CH2Cl),T^frat-mediated apoptosis in target pMel-1 CD8 T cells in presence of the agent (annexin V),[3],fully abrogated
NC(=O)c1ccc[n+]([C@@H]2O[C@H](COP(=O)([O-])OP(=O)(O)OC[C@H]3O[C@@H](n4cnc5c(N)ncnc54)[C@H](O)[C@@H]3O)[C@@H](O)[C@H]2O)c1 [NAD],expression of Gzm B in T^frat,T^frat cells [2],decrease in the expression of Gzm B
"rCD31: recombinant CD31 protein (3628-PC-050, R&D) (protein) EENSFTINSIHMESLPSWEVMNGQQLTLECLVDISTTSKSRSQHRVLFYKDDAMVYNVTSREHTESYVIPQARVFHSGKYKCTVMLNNKEKTTIEYEVKVHGVSKPKVTLDKKEVTEGGVVTVNCSLQEEKPPIFFKIEKLEVGTKFVKRRIDKTSNENFVLMEFPIEAQDHVLVFRCQAGILSGFKLQESEPIRSEYVTVQESFSTPKFEIKPPGMIIEGDQLHIRCIVQVTHLVQEFTEIIIQKDKAIVATSKQSSEAVYSVMAMVEYSGHYTCKVESNRISKASSIMVNITELFPKPKLEFSSSRLDQGELLDLSCSVSGTPVANFTIQKEETVLSQYQNFSKIAEESDSGEYSCTAGIGKVVKRSGLVPIQVCEMLSKPSIFHDAKSEIIKGHAIGISCQSENGTAPITYHLMKAKSDFQTLEVTSNDPATFTDKPTRDMEYQCRADNCHSHPAVFSEILRVRVIAPVDEVVISILSSNEVQSGSEMVLRCSVKEGTSPITFQFYKEKEDRPFHQAVVNDTQAFWHNKQASKKQEGQYYCTASNRASSMRTSPRSSTLAVRVFLAPWKK","expression of phosphorylated Zap70, PI3K, RAC, and ERK in T^frat cells",[4],"increase in the expression of phosphorylated Zap70, PI3K, RAC, and ERK"

# Source: patent publication US20260167715A1, “PD-1+CD38HICD8+ KILLER T CELLS AND USES THEREOF” (GEORGETOWN UNIVERSITY, priority 2022, published 2026)
